{
  "source": "patent US4978744A",
  "about": "“Synthesis of dolastatin 10” (Arizona Board of Regents, priority 1989, dated 1990)",
  "test_system": "P388 lymphocytic leukemia",
  "experiment": "Activity against the P388 lymphocytic leukemia",
  "format": "cell-based",
  "details": "same level as routinely obtained with the natural product",
  "data": [
    {"substance": "dolastatin 10 [Synthetic dolastatin 10]", "values": [
      {"measurement": "ED50, activity against the P388 lymphocytic leukemia", "value": "10^-4 μg/mL"}
    ]}
  ]
}
